Where “and” joins values, the source holds several entries; their conditions need not be identical. Identical values can stand only once. Inconclusive results and toxic doses are left out.
Tested on: BDF1 mice, M5076 sarcoma ip, median survival T/C
Experiment: NCI In Vivo Anticancer Drug Screen. Data for tumor model Sarcoma M5076 (intraperitoneal) in B6D2F1 (BDF1) mice
Conditions: endpoint: median survival time, higher = longer survival
Experimental: The antitumor activity of compounds was measured in mice bearing transplantable tumors. Survival or tumor size were measured and the results are expressed as the measurement made in the treated group (T) divided by the measurement made in the vehicle treated control group (C). The tumor model used in this assay is Sarcoma M5076 (intraperitoneal) in B6D2F1 (BDF1) mice

[1] = dose: 12.5 mg/kg/injection, schedule: Q04DX004 (ip), vehicle: saline with Tween-80
[2] = dose: 25.0 mg/kg/injection, schedule: Q04DX004 (ip), vehicle: saline with Tween-80
[3] = dose: 50.0 mg/kg/injection, schedule: Q04DX004 (ip), vehicle: saline with Tween-80
[4] = dose: 100.0 mg/kg/injection, schedule: Q04DX004 (ip), vehicle: saline with Tween-80

With `O=C(O)c1ccc(C(=O)O)c(C(=O)O)c1.[NH-]C1CCCCC1[NH-].[Pt+2]` the T/C (dose: 3.11 mg/kg/injection, schedule: Q04DX005 (ip), vehicle: sodium bicarbonate) was 206 % of control, the T/C (dose: 5.18 mg/kg/injection, schedule: Q04DX005 (ip), vehicle: sodium bicarbonate) was 181 % of control and the T/C (dose: 8.64 mg/kg/injection, schedule: Q04DX005 (ip), vehicle: sodium bicarbonate) was 216 % of control. For the same molecule, the T/C (dose: 14.4 mg/kg/injection, schedule: Q04DX005 (ip), vehicle: sodium bicarbonate) was 245 % of control, the T/C (dose: 24.0 mg/kg/injection, schedule: Q04DX005 (ip), vehicle: sodium bicarbonate) was 381 % of control and the T/C (dose: 40.0 mg/kg/injection, schedule: Q04DX005 (ip), vehicle: sodium bicarbonate) was 87 % of control.

With `COc1cc2c(cc1OC)[C@@H]1C(=O)c3ccc4c(c3O[C@@H]1CO2)C[C@H](C(C)C)O4` the T/C (dose: 1.56 mg/kg/injection, schedule: Q01DX009 (ip), vehicle: Klucel (hydroxypropylcellulose) (HPC)) was 112 % of control and 114 % of control, the T/C (dose: 3.12 mg/kg/injection, schedule: Q01DX009 (ip), vehicle: Klucel (hydroxypropylcellulose) (HPC)) was 110 % of control and the T/C (dose: 6.25 mg/kg/injection, schedule: Q01DX009 (ip), vehicle: Klucel (hydroxypropylcellulose) (HPC)) was 122 % of control. The T/C (dose: 12.5 mg/kg/injection, schedule: Q01DX009 (ip), vehicle: Klucel (hydroxypropylcellulose) (HPC)) was 124 % of control.

For `O=c1n(CC2CO2)c(=O)n(CC2CO2)c(=O)n1CC1CO1` (configuration not stated), the T/C (dose: 13.0 mg/kg/injection, schedule: Q04DX005 (ip), vehicle: saline) was 191 % of control, the T/C (dose: 21.6 mg/kg/injection, schedule: Q04DX005 (ip), vehicle: saline) was 270 % of control and the T/C (dose: 36.0 mg/kg/injection, schedule: Q04DX005 (ip), vehicle: saline) was 377 % of control. The T/C (dose: 60.0 mg/kg/injection, schedule: Q04DX005 (ip), vehicle: saline) was 377 % of control.

`C1CCC(NC2CCCCC2)CC1` was tested, and the T/C (dose: 25.0 mg/kg/injection, schedule: Q04DX004 (ip), vehicle: saline) was 102 % of control, the T/C (dose: 50.0 mg/kg/injection, schedule: Q04DX004 (ip), vehicle: saline) was 98 % of control and the T/C (dose: 100.0 mg/kg/injection, schedule: Q04DX004 (ip), vehicle: saline) was 100 % of control. The T/C (dose: 200.0 mg/kg/injection, schedule: Q04DX004 (ip), vehicle: saline) was 105 % of control and the T/C (dose: 400.0 mg/kg/injection, schedule: Q04DX004 (ip), vehicle: saline) was 105 % of control.

`CC1(C)N=C(N)N=C(N)N1c1ccc(CCCCc2ccc(S(=O)(=O)F)cc2Cl)c(Cl)c1` was tested, and the T/C (dose: 5.0 mg/kg/injection, schedule: Q01DX009 (ip), vehicle: Klucel (hydroxypropylcellulose) (HPC)) was 220 % of control, the T/C (dose: 10.0 mg/kg/injection, schedule: Q01DX009 (ip), vehicle: Klucel (hydroxypropylcellulose) (HPC)) was 251 % of control and the T/C (dose: 20.0 mg/kg/injection, schedule: Q01DX009 (ip), vehicle: Klucel (hydroxypropylcellulose) (HPC)) was 303 % of control. For the same molecule, the T/C (dose: 40.0 mg/kg/injection, schedule: Q01DX009 (ip), vehicle: Klucel (hydroxypropylcellulose) (HPC)) was 388 % of control, the T/C (dose: 40.0 mg/kg/injection, schedule: Q01DX009 (ip), vehicle: saline with Tween-80) was 224 % of control and the T/C (dose: 60.0 mg/kg/injection, schedule: Q01DX009 (ip), vehicle: saline with Tween-80) was 224 % of control.

For `COc1cc(C)c(C2NC(=O)c3ccccc3N2)cc1C` (configuration not stated), the T/C [1] was 102 % of control, the T/C [2] was 102 % of control and the T/C [3] was 90 % of control. For the same molecule, the T/C [4] was 105 % of control and the T/C (dose: 200.0 mg/kg/injection, schedule: Q04DX004 (ip), vehicle: saline with Tween-80) was 124 % of control.

For `C/C(=N\NC(=S)N1CC2CCC(CC2)C1)c1nccs1`, the T/C [1] was 107 % of control and the T/C [2] was 106 % of control.

`CC1CCC(NC(=O)N(CCCl)N=O)CC1` (configuration not stated) was tested, and the T/C (dose: 3.0 mg/kg/injection, schedule: Q04DX004 (ip), vehicle: Klucel (hydroxypropylcellulose) (HPC)) was 216 % of control and 163 % of control, the T/C (dose: 6.0 mg/kg/injection, schedule: Q04DX004 (ip), vehicle: Klucel (hydroxypropylcellulose) (HPC)) was 189 % of control and 193 % of control and 216 % of control and the T/C (dose: 12.0 mg/kg/injection, schedule: Q04DX004 (ip), vehicle: Klucel (hydroxypropylcellulose) (HPC)) was 216 % of control and 233 % of control and 320 % of control.

`COc1cc2cc3c(c(O)c2c(O)c1/C=C/C(C)C)C(=O)CC(C)(OC(C)=O)C3` (configuration not stated) was tested, and the T/C (dose: 0.31 mg/kg/injection, schedule: Q01DX009 (ip), vehicle: Klucel (hydroxypropylcellulose) (HPC)) was 111 % of control, the T/C (dose: 0.63 mg/kg/injection, schedule: Q01DX009 (ip), vehicle: Klucel (hydroxypropylcellulose) (HPC)) was 108 % of control and 115 % of control and the T/C (dose: 1.25 mg/kg/injection, schedule: Q01DX009 (ip), vehicle: Klucel (hydroxypropylcellulose) (HPC)) was 111 % of control and 119 % of control.

With `CCN(CC)CCNc1ccc(C)c2sc3ccccc3c(=O)c12` the T/C (dose: 5.0 mg/kg/injection, schedule: Q04DX004 (ip), vehicle: water) was 113 % of control, the T/C (dose: 10.0 mg/kg/injection, schedule: Q04DX004 (ip), vehicle: water) was 112 % of control and the T/C (dose: 20.0 mg/kg/injection, schedule: Q04DX004 (ip), vehicle: water) was 103 % of control. For the same molecule, the T/C (dose: 40.0 mg/kg/injection, schedule: Q04DX004 (ip), vehicle: water) was 112 % of control and the T/C (dose: 160.0 mg/kg/injection, schedule: Q04DX004 (ip), vehicle: water) was 108 % of control.

In the case of `CC(=O)N(C)c1ccc(Nc2cc(C)[nH]c3ccc4ncnc4c23)cc1`, the T/C (dose: 5.0 mg/kg/injection, schedule: Q04DX004 (ip), vehicle: saline) is reported as 96 % of control.

For `O=Cc1c(O)c2ccccc2[nH]c1=O`, the T/C [2] was 98 % of control, the T/C [3] was 124 % of control and the T/C [4] was 101 % of control.

In the case of `CCC/C=C/C=C/C(=O)OC1/C(=C/C(=O)OC)CC2CC(C(C)O)OC(=O)CC(O)CC3CC(OC(C)=O)C(C)(C)C(O)(CC4C/C(=C/C(=O)OC)CC(/C=C/C(C)(C)C1(O)O2)O4)O3` (configuration not stated), the T/C (dose: 20.0 micrograms/kg/injection, schedule: Q01DX009 (ip), vehicle: saline + Tween-80 + alcohol) is reported as 158 % of control, the T/C (dose: 40.0 micrograms/kg/injection, schedule: Q01DX009 (ip), vehicle: saline + Tween-80 + alcohol) is reported as 168 % of control and the T/C (dose: 80.0 micrograms/kg/injection, schedule: Q01DX009 (ip), vehicle: saline + Tween-80 + alcohol) is reported as 160 % of control.

In the case of `Nc1ccn(C2OC(CO)C(O)C2O)c(=O)n1` (configuration not stated), the T/C (dose: 125.0 mg/kg/injection, schedule: Q04DX005 (ip), vehicle: saline) is reported as 164 % of control, the T/C (dose: 250.0 mg/kg/injection, schedule: Q04DX005 (ip), vehicle: saline) is reported as 184 % of control and the T/C (dose: 500.0 mg/kg/injection, schedule: Q04DX005 (ip), vehicle: saline) is reported as 185 % of control. For the same molecule, the T/C (dose: 1000.0 mg/kg/injection, schedule: Q04DX005 (ip), vehicle: saline) was 199 % of control.

With `Cc1nc(C(Cl)(Cl)Cl)[nH]c(=O)c1SCCO` the T/C (dose: 50.0 mg/kg/injection, schedule: Q04DX004 (ip), vehicle: distilled water + alcohol) was 101 % of control, the T/C (dose: 100.0 mg/kg/injection, schedule: Q04DX004 (ip), vehicle: distilled water + alcohol) was 93 % of control and the T/C (dose: 200.0 mg/kg/injection, schedule: Q04DX004 (ip), vehicle: distilled water + alcohol) was 94 % of control. The T/C (dose: 400.0 mg/kg/injection, schedule: Q04DX004 (ip), vehicle: distilled water + alcohol) was 96 % of control.

With `Oc1cc(O)c(-c2c(O)cc(O)cc2O)c(O)c1` (tested in a mixture with another compound) the T/C (dose: 1.56 mg/kg/injection, schedule: Q01DX009 (ip), vehicle: saline) was 118 % of control, the T/C (dose: 3.12 mg/kg/injection, schedule: Q01DX009 (ip), vehicle: saline) was 122 % of control and the T/C (dose: 3.75 mg/kg/injection, schedule: Q01DX009 (ip), vehicle: saline) was 119 % of control. For the same molecule, the T/C (dose: 6.25 mg/kg/injection, schedule: Q01DX009 (ip), vehicle: saline) was 118 % of control, the T/C (dose: 12.5 mg/kg/injection, schedule: Q01DX009 (ip), vehicle: saline) was 123 % of control and the T/C (dose: 15.0 mg/kg/injection, schedule: Q01DX009 (ip), vehicle: saline) was 123 % of control.

For `C=C1C(=O)OC2C1C(OC(=O)/C(C)=C\C)CC(C)=C1C(=O)C3OC3(C)C12O` (configuration not stated), the T/C (dose: 1.25 mg/kg/injection, schedule: Q01DX009 (ip), vehicle: saline + alcohol) was 97 % of control, the T/C (dose: 2.5 mg/kg/injection, schedule: Q01DX009 (ip), vehicle: saline + alcohol) was 105 % of control and the T/C (dose: 5.0 mg/kg/injection, schedule: Q01DX009 (ip), vehicle: saline + alcohol) was 105 % of control and 121 % of control. The T/C (dose: 20.0 mg/kg/injection, schedule: Q01DX009 (ip), vehicle: saline + alcohol) was 117 % of control.

For `O=C1N[C@H]2[C@H](O)[C@H](O)[C@@H](O)[C@H](O)[C@@H]2c2cc3c(c(O)c21)OCO3`, the T/C (dose: 0.38 mg/kg/injection, schedule: Q01DX009 (ip), vehicle: saline + alcohol) was 153 % of control, the T/C (dose: 0.75 mg/kg/injection, schedule: Q01DX009 (ip), vehicle: saline + alcohol) was 159 % of control and the T/C (dose: 1.5 mg/kg/injection, schedule: Q01DX009 (ip), vehicle: saline + alcohol) was 161 % of control and 166 % of control. The T/C (dose: 3.0 mg/kg/injection, schedule: Q01DX009 (ip), vehicle: saline + alcohol) was 184 % of control and 165 % of control.

Reference: PubChem BioAssay AID286 (DTP/NCI, 2004)
